The results in this text go back to patent US20250101042A1, “KRAS G12D MODULATING COMPOUNDS” (Gilead Sciences, Inc., priority 2023, published 2025).

For orientation: EC50 means the midpoint of the concentration-response curve. A word on the IC50: it is the concentration at which inhibition is half-maximal.

One assay relates to GP2D (KRAS G12D) cells. The experiment in a line: 2D Cell Viability Assay (CellTiter-Glo). It counts as cell-based. The settings on record: 4 days, CellTiter-Glo luminescence. On the procedure:
Example B. 2D Cell Viability Assay
Compounds were tested in a 384-well format for their ability to inhibit the viability of GP2D (KRAS G12D) cells in 2D assays. Compounds were serially diluted (1:3) in DMSO. The LabCyte ECHO Acoustic dispenser system was used to pre-spot assay plates with 200 nL of test molecule per well. 1000 cells/well (40 μL volume per well) in RPMI medium with 10% FBS, and Penicillin-Streptomycin-Glutamine were plated in pre-spotted 384-well plates (Greiner, Catalog #781076) on the BioTEK EL406 liquid dispenser with a 5 μL dispensing cassette (BioTek 7170011). The plates were incubated at 37° C., 5% CO2 for 4 days before addition of CellTiter-Glo (CTG) reagent and measurement of luminescence signal. EC50 values were defined as the compound concentration that causes a 50% decrease in luminescence signal and were calculated using a sigmoidal dose-response model to generate curve fits.
For orientation: In ATP-based viability assays light output follows the ATP content of the culture.

In the next assay the target is GDP-loaded KRAS G12D (Homo sapiens, UniProt P01116, G12D). In words: KRAS G12D (GDP) Biochemical Assay (TR-FRET probe displacement). It counts as binding. The settings on record: 0.5 nM enzyme, 2 hours at room temperature. On the procedure: Example A. KRAS G12D (GDP) Biochemical Assay
GDP-loaded KRAS G12D, sequence (P01116 1-188 isoform P01116-2 G12D): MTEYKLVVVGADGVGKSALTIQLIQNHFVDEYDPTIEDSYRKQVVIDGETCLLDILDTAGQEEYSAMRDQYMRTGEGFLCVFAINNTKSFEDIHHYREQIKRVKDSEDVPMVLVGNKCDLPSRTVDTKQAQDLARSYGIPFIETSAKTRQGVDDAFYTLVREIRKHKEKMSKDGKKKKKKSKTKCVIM
Compounds were tested for binding to GDP-loaded KRAS G12D in a 384-well assay format using a TR-FRET probe displacement assay in buffer consisting of 50 mM Hepes (pH 7.4), 150 mM NaCl, 5 mM MgCl2 and 0.005% Tween-20. […] Compounds were serially diluted (1:3) in DMSO. The LabCyte ECHO Acoustic dispenser system was used to pre-spot the assay plates (384-well Non-Binding Surface plates, Corning, Catalog #3824) with 50 nL of compound. The compounds were pre-incubated with 5 μL of 2× final enzyme concentration for 30 minutes before adding 5 μL of 2× final concentration of Eu-streptavidin and TR-FRET probe (10 μL final reaction volume). The plates were incubated at room temperature for 2 hours before measuring TR-FRET ratio on the Envision plate reader. IC50 values were defined as the compound concentration that causes a 50% decrease in TR-FRET ratio and were calculated using a sigmoidal dose-response model to generate curve fits.
(In TR-FRET formats the signal depends on donor and acceptor labels being close together.)

`CCc1c(-c2nc(N)cc(C)c2C(F)(F)F)c(F)c2nc(OC[C@@]34CCCN3C[C@H](F)C4)nc3c2c1CC[C@@H]1[C@@H]2CC[C@H](CN31)N2` [Example 16, 6-((1S,4R,14aR)-12-ethyl-10-fluoro-8-(((2R,7aS)-2-fluorotetrahydro-1H-pyrrolizin-7a(5H)-yl)methoxy)-1,2,3,4,5,13,14,14a-octahydro-1,4-epiminoazepino[1′,2′:1,7]azepino[2,3,4-de]quinazolin-11-yl)-4-methyl-5-(trifluoromethyl)pyridin-2-amine]: the EC50 with GP2D (KRAS G12D) cells (GP2d, 96 h) is 20 nM. Besides, the IC50 at GDP-loaded KRAS G12D worked out at 0.82 nM.
In the case of `N#Cc1c(N)sc2c(F)ccc(-c3c(F)c4c5c(nc(OC[C@@]67CCCN6C[C@H](F)C7)nc5c3F)N3C[C@H]5CC[C@H](N5)[C@H]3CC4)c12` (single isomer, unassigned) [Example 59], the EC50 in the assay on GP2D (KRAS G12D) cells is 24 nM. This compound also displayed an IC50 at GDP-loaded KRAS G12D of 4.2 nM.
`Cc1cc(N)nc(-c2c(F)c3c4c(nc(OC[C@@]56CCCN5C[C@H](F)C6)nc4c2F)N2C[C@H]4CC[C@H](N4)[C@H]2CC3)c1C(F)(F)F` (single isomer, unassigned) [Example 21] showed an EC50 in the assay on GP2D (KRAS G12D) cells of 12 nM. The IC50 on GDP-loaded KRAS G12D was 2 nM.
In the case of `C#Cc1c(F)ccc2cc(N)nc(-c3c(F)c4c5c(nc(OC[C@@]67CCCN6C[C@H](F)C7)nc5c3F)N3C[C@H]5CC[C@H](N5)[C@H]3CCC4)c12` [Example 61, (S)-1-((1S,4R,15aR)-10,12-difluoro-8-(((2R,7aS)-2-fluorotetrahydro-1H-pyrrolizin-7a(5H)-yl)methoxy)-2,3,4,5,13,14,15,15a-octahydro-1H-1,4-epiminoazepino[1′,2′:1,8]azocino[2,3,4-de]quinazolin-11-yl)-8-ethynyl-7-fluoroisoquinolin-3-amine], in the assay with GP2D (KRAS G12D) cells (GP2d, 96 h), the EC50 turned out to be 0.88 nM. For the same compound, the IC50 on GDP-loaded KRAS G12D is 0.02 nM.
In the case of `Cc1cc(N)nc(-c2nc3c4c(nc(OC[C@@]56CCCN5C[C@H](F)C6)nc4c2F)N2C[C@H]4CC[C@H](N4)[C@@H]2CC3)c1C(F)(F)F` [Example 4, 6-((5aS,6S,9R)-1-fluoro-12-(((2R,7aS)-2-fluorotetrahydro-1H-pyrrolizin-7a(5H)-yl)methoxy)-4,5,5a,6,7,8,9,10-octahydro-3,10a,11,13,14-pentaaza-6,9-methanonaphtho[1,8-ab]heptalen-2-yl)-4-methyl-5-(trifluoromethyl)pyridin-2-amine], the EC50 in the assay on GP2D (KRAS G12D) cells (GP2d, 96 h) was greater than 100 nM. This compound also displayed an IC50 on GDP-loaded KRAS G12D of 62 nM.
`Cc1cc(N)nc(-c2c(Cl)c3c4c(nc(OC[C@@]56CCCN5C[C@H](F)C6)nc4c2F)N2C[C@H]4CC[C@H](N4)[C@H]2CC3)c1C(F)(F)F` (single isomer, unassigned) [Example 6]: in the assay with GP2D (KRAS G12D) cells, a half-maximal response (EC50) required 1.2 nM. The IC50 at GDP-loaded KRAS G12D was 0.05 nM.
`C[C@H]1Cc2c(F)c(-c3ncc(F)c4sc(N)c(C#N)c34)c(F)c3nc(OC[C@@]45CCCN4C[C@H](F)C5)nc(c23)N2C[C@H]3CC[C@H](N3)[C@H]12` (single isomer, unassigned) [Example 50] displayed an EC50 in the assay on GP2D (KRAS G12D) cells (GP2d, 96 h) of 2.6 nM. The IC50 at GDP-loaded KRAS G12D came out at 0.12 nM.
Compound `Cc1cc(N)nc(-c2c(Cl)c3c4c(nc(OC[C@@]56CCCN5C[C@H](F)C6)nc4c2F)N2C[C@H]4CC[C@H](N4)[C@H]2CCC3)c1C(F)(F)F` (single isomer, unassigned) [Example 2] had an EC50 in the assay with GP2D (KRAS G12D) cells (GP2d, 96 h) of 65 nM. Also, the IC50 on GDP-loaded KRAS G12D amounted to 8.8 nM.
As for `Cc1cc(N)nc(-c2c(C)c3c4c(nc(OC[C@@]56CCCN5C[C@H](F)C6)nc4c2F)N2C[C@H]4CC[C@H](N4)[C@H]2CC3)c1C(F)(F)F` [Example 10, 6-((1S,4R,14aR)-10-fluoro-8-(((2R,7aS)-2-fluorotetrahydro-1H-pyrrolizin-7a(5H)-yl)methoxy)-12-methyl-1,2,3,4,5,13,14,14a-octahydro-1,4-epiminoazepino[1′,2′:1,7]azepino[2,3,4-de]quinazolin-11-yl)-4-methyl-5-(trifluoromethyl)pyridin-2-amine], the response with GP2D (KRAS G12D) cells (GP2d, 96 h) was half-maximal at 10 nM (EC50). This compound also had an IC50 on GDP-loaded KRAS G12D of 0.29 nM.
In the same order, the values of `N#Cc1c(N)sc2cccc(-c3nc4c5c(nc(OC[C@@]67CCCN6C[C@H](F)C7)nc5c3F)N3C[C@H]5CC[C@H](N5)[C@H]3CCC4)c12` [Example 12, 2-amino-4-((6aR,7S,10R)-1-fluoro-13-(((2R,7aS)-2-fluorotetrahydro-1H-pyrrolizin-7a(5H)-yl)methoxy)-5,6,6a,7,8,9,10,11-octahydro-4H-3,11a,12,14,15-pentaaza-7,10-methanocyclohepta[4,5]cycloocta[1,2,3-de]naphthalen-2-yl)benzo[b]thiophene-3-carbonitrile] are 3.5 nM and 0.17 nM.
With `Cc1cc(N)nc(-c2nc3c4c(nc(OC[C@@]56CCCN5C[C@H](F)C6)nc4c2F)N2C[C@H]4CC[C@H](N4)[C@@H]2[C@@H](C)C3)c1C(F)(F)F` [Example 17, 6-((5S,5aS,6S,9R)-1-fluoro-12-(((2R,7aS)-2-fluorotetrahydro-1H-pyrrolizin-7a(5H)-yl)methoxy)-5-methyl-4,5,5a,6,7,8,9,10-octahydro-3,10a,11,13,14-pentaaza-6,9-methanonaphtho[1,8-ab]heptalen-2-yl)-4-methyl-5-(trifluoromethyl)pyridin-2-amine], the EC50 with GP2D (KRAS G12D) cells (GP2d, 96 h) amounted to 25 nM. Moreover, at GDP-loaded KRAS G12D, the IC50 was determined as 6.1 nM.
Consider `C[C@H]1Cc2c(F)c(-c3ncc(F)c4sc(N)c(C#N)c34)c(F)c3nc(OC[C@@]45CCCN4C[C@H](F)C5)nc(c23)N2C[C@H]3CC[C@H](N3)[C@H]12` (single isomer, unassigned) [Example 51], for which the response with GP2D (KRAS G12D) cells was half-maximal at 3.4 nM (EC50). At GDP-loaded KRAS G12D, the IC50 was found to be 0.8 nM.
